In US20250034110A1, “LPAR1 ANTAGONISTS AND USES THEREOF” (Pipeline Therapeutics, Inc., priority 2021, published 2025) one finds IC50 data, which are given here for 38 compounds.

For this assay, the target named is human LPAR1 (Homo sapiens, UniProt Q92633). The experiment in a line: In vitro functional assay of lysophosphatidic acid receptor 1 activity (calcium flux). Type of assay: cell-based.
[1] abbreviates: B103 cells stably expressing human LPAR1, calcium flux (Fluo-4 NW) after lysophosphatidic acid (18:1) at EC80, 100 pM to 10 μM, read-out: LPAR1 IC50.

Like-named read-outs stand apart in the source and are kept apart here.

Sequence of human LPAR1 (Q92633 whole entry): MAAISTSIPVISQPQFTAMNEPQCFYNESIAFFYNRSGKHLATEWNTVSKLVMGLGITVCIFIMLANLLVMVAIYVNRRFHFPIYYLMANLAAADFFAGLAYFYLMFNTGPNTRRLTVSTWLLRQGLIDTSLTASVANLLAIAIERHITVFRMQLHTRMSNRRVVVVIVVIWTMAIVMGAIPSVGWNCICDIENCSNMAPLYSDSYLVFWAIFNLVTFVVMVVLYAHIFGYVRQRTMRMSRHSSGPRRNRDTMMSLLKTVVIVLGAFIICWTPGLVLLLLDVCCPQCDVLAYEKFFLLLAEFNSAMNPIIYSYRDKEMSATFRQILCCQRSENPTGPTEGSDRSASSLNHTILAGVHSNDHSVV

For orientation: IC50 means the concentration at which inhibition is half-maximal. Turning to `Cc1ccc(NC(=O)N(c2ccccc2C(C)C)[C@@H]2CCC(=O)N(C)C2)c(OC(F)F)n1` [Example 5, (R)-3-(2-(difluoromethoxy)-6-methylpyridin-3-yl)-1-(2-isopropylphenyl)-1-(1-methyl-6-oxopiperidin-3-yl)urea], the IC50 under setting [1] lay within 0.01 to 0.1 µM.

For the compound `CC(=O)N1CCC(N(C(=O)Nc2ccc(C)nc2OCC(F)(F)F)c2ccccc2C(C)C)CC1` [Example 104], the 50% inhibitory concentration (IC50) (LPAR1 IC50) lay within 0.1 to 1 µM.

As for `Cc1ccc(NC(=O)N(c2ccccc2C(C)C)C2CCC(=O)N(C)C2)c(OC(F)F)n1` (centres unmarked) [Example 4, 3-(2-(difluoromethoxy)-6-methylpyridin-3-yl)-1-(2-isopropylphenyl)-1-(1-methyl-6-oxopiperidin-3-yl)urea], the half-maximal inhibitory concentration (IC50) under setting [1] was 0.01 to 0.1 µM.

Take `Cc1ccc(NC(=O)N(c2ccccc2C(C)C)C2COC2)c(OC(F)F)n1` [Example 14, 3-(2-(difluoromethoxy)-6-methylpyridin-3-yl)-1-(2-isopropylphenyl)-1-(oxetan-3-yl)urea]: the IC50 under setting [1] fell in the range of 0.01 to 0.1 µM.

As to `COc1ccc(NC(=O)N(c2ccccc2C(C)C)[C@H]2CC[C@](O)(C(F)(F)C(=O)O)CC2)c(OC(F)F)n1` [Example 322, 2-((1s,4s)-4-(3-(2-(difluoromethoxy)-6-methoxypyridin-3-yl)-1-(2-isopropylphenyl)ureido)-1-hydroxycyclohexyl)-2,2-difluoroacetic acid], under setting [1], the IC50 was less than 0.01 µM.

For the compound `Cc1ccc(NC(=O)N(CC2CC(C(=O)O)C2)c2ccccc2C(C)C)c(OC(F)F)n1` (centres unmarked) [Example 170], the half-inhibitory concentration (IC50) under setting [1] is less than 0.01 µM.

With `CC(=O)N1CC(N(C(=O)Nc2ncc(Cl)cc2OC(F)F)c2ccccc2C(C)C)C1` [Example 120], the IC50 under setting [1] was in the range of 0.1 to 1 µM.

Turning to `Cc1ccc(NC(=O)N(C[C@H]2CCN2C(=O)OC(C)(C)C)c2ccccc2C(C)C)c(OC(F)F)n1` [Example 11, tert-butyl (R)-2-((3-(2-(difluoromethoxy)-6-methylpyridin-3-yl)-1-(2-isopropylphenyl)ureido)methyl)azetidine-1-carboxylate], the IC50 under setting [1] is more than 1 µM.

Take `Cc1ccc(NC(=O)N(c2ccccc2C(C)C)[C@H]2C[C@@H](CC#N)C2)c(OC(F)F)n1` [Example 28, 1-((1r,3s)-3-(cyanomethyl)cyclobutyl)-3-(2-(difluoromethoxy)-6-methylpyridin-3-yl)-1-(2-isopropylphenyl)urea]: the IC50 under setting [1] lay within 0.01 to 0.1 µM.

For the compound `CC(C)c1ccccc1N(C(=O)Nc1cc(F)c(F)cc1OC(F)F)[C@H]1C[C@H](C(=O)O)C1` [Example 164, trans-3-(3-(2-(difluoromethoxy)-4,5-difluorophenyl)-1-(2-isopropylphenyl)ureido)cyclobutane-1-carboxylic acid], the IC50 under setting [1] was in the range of 0.01 to 0.1 µM.

With `COc1cc(Cl)c(F)cc1NC(=O)N(c1ccccc1C(C)C)[C@H]1CC[C@H](C(=O)O)CC1` [Example 333, (1r,4r)-4-(3-(4-chloro-5-fluoro-2-methoxyphenyl)-1-(2-isopropylphenyl)ureido)cyclohexane-1-carboxylic acid], under setting [1], the IC50 is less than 0.01 µM.

As for `Cc1ccc(NC(=O)N(c2ccccc2C(C)C)[C@H]2CCN(C(=O)Cn3nccn3)C2)c(OC(F)F)n1` [Example 83, (S)-1-(1-(2-(2H-1,2,3-triazol-2-yl)acetyl)pyrrolidin-3-yl)-3-(2-(difluoromethoxy)-6-methylpyridin-3-yl)-1-(2-isopropylphenyl)urea], the half-inhibitory concentration (IC50) under setting [1] is 0.1 to 1 µM.

With `CCOC(=O)N1CC(N(C(=O)Nc2ccc(C)nc2OC(F)F)c2ccccc2C(C)C)C1` [Example 78, ethyl 3-(3-(2-(difluoromethoxy)-6-methylpyridin-3-yl)-1-(2-isopropylphenyl)ureido)azetidine-1-carboxylate], the IC50 under setting [1] was in the range of 0.01 to 0.1 µM.

Take `CC(=O)N1CCC(N(C(=O)Nc2ccc(OC(F)F)nc2Cl)c2ccccc2C(C)C)CC1` [Example 108]: the IC50 (LPAR1 IC50) is 0.1 to 1 µM.

`Cc1ccc(NC(=O)N(c2ccccc2C(C)C)C2(C)COC2)c(OC(F)F)n1` [Example 3, 3-(2-(difluoromethoxy)-6-methylpyridin-3-yl)-1-(2-isopropylphenyl)-1-(3-methyloxetan-3-yl)urea]: the IC50 under setting [1] lay within 0.1 to 1 µM.

`Cc1ccc(NC(=O)N(c2ccccc2C(C)C)[C@H]2CC[C@H](S(C)(=O)=O)CC2)c(OC(F)F)n1` [Example 256, 3-(2-(difluoromethoxy)-6-methylpyridin-3-yl)-1-(2-isopropylphenyl)-1-((1r,4r)-4-(methylsulfonyl)cyclohexyl)urea]: the concentration for half-maximal inhibition (IC50) under setting [1] fell in the range of 0.1 to 1 µM.

`COc1ccc(NC(=O)N(c2ccccc2C(C)C)[C@H]2CC[C@H](C(=O)O)CC2)c(OC(F)F)n1` [Example 144, trans-4-(3-(2-(difluoromethoxy)-6-methoxypyridin-3-yl)-1-(2-isopropylphenyl)ureido)cyclohexane-1-carboxylic acid]: the IC50 under setting [1] lay in the range of 0.01 to 0.1 µM.

Regarding `COC[C@H](C)Oc1nc(C)ccc1NC(=O)N(c1ccccc1C(C)C)[C@H]1CC[C@H](C(=O)O)CC1` [Example 316, trans-4-(1-(2-isopropylphenyl)-3-(2-(((S)-1-methoxypropan-2-yl)oxy)-6-methylpyridin-3-yl)ureido)cyclohexane-1-carboxylic acid], the half-inhibitory concentration (IC50) under setting [1] was 0.01 to 0.1 µM.

For `CC(C)Oc1cc(C(F)F)ncc1NC(=O)N(c1ccccc1C(C)C)[C@H]1CC[C@H](C(=O)O)CC1` [Example 295, (1r,4r)-4-(3-(6-(difluoromethyl)-4-isopropoxypyridin-3-yl)-1-(2-isopropylphenyl)ureido)cyclohexane-1-carboxylic acid], the IC50 under setting [1] lay in the range of 0.1 to 1 µM.

`CC(=O)N1CC2(CC(N(C(=O)Nc3ccc(C)nc3OC(F)F)c3ccccc3C(C)C)C2)C1` [Example 70, 1-(2-acetyl-2-azaspiro[3.3]heptan-6-yl)-3-(2-(difluoromethoxy)-6-methylpyridin-3-yl)-1-(2-isopropylphenyl)urea]: the IC50 under setting [1] was 0.1 to 1 µM.

As to `Cc1ccc(NC(=O)N(c2ccccc2C(C)C)[C@H]2CC[C@H](C(=O)O)CC2)c(OCC(F)F)n1` [Example 335, (1r,4r)-4-(3-(2-(2,2-difluoroethoxy)-6-methylpyridin-3-yl)-1-(2-isopropylphenyl)ureido)cyclohexane-1-carboxylic acid], the IC50 under setting [1] fell in the range of 0.01 to 0.1 µM.

As to `Cc1ccc(NC(=O)N(c2ccccc2C(C)C)[C@H]2C[C@@H](C#N)C2)c(OC(F)F)n1` [Example 26, 1-((1s,3s)-3-cyanocyclobutyl)-3-(2-(difluoromethoxy)-6-methylpyridin-3-yl)-1-(2-isopropylphenyl)urea], under setting [1], the IC50 was in the range of 0.1 to 1 µM.

As for `COc1cc(C(F)F)ncc1NC(=O)N(c1ccccc1C(C)C)[C@H]1C[C@@H](CC(=O)O)C1` [Example 307], under setting [1], the IC50 was 0.1 to 1 µM.

For the compound `Cc1ccc(NC(=O)N(c2ccccc2C(C)C)C2CN(S(N)(=O)=O)C2)c(OC(F)F)n1` [Example 127, 3-(3-(2-(difluoromethoxy)-6-methylpyridin-3-yl)-1-(2-isopropylphenyl)ureido)azetidine-1-sulfonamide], the concentration for half-maximal inhibition (IC50) under setting [1] lay within 0.01 to 0.1 µM.

As to `Cc1nc(OC(F)F)c(NC(=O)N(c2ccccc2C(C)C)[C@H]2CC[C@@H](CC(=O)O)CC2)cc1F` [Example 222], the concentration for half-maximal inhibition (IC50) under setting [1] lay in the range of 0.01 to 0.1 µM.

Regarding `Cc1ccc(NC(=O)N(c2ccccc2C(C)C)[C@H]2CC[C@@H](C=O)CC2)c(OC(F)F)n1` [Example 244], the IC50 under setting [1] is more than 1 µM.

For the compound `Cc1ccc(NC(=O)N(c2ccccc2C(C)C)[C@@H]2CCC[C@H](C(=O)O)C2)c(OC(F)F)n1` [Example 287], under setting [1], the half-maximal inhibitory concentration (IC50) lay in the range of 0.1 to 1 µM.

On to `CC(=O)N1CCC(N(C(=O)Nc2ccc(C(F)F)nc2OC(F)F)c2ccccc2C(C)C)CC1` [Example 115], for which the IC50 (LPAR1 IC50) is 0.01 to 0.1 µM.

On to `COc1ccc(NC(=O)N(c2ccccc2C(C)C)[C@H]2C[C@@H](C(=O)O)C2)c(OC(F)F)n1` [Example 152], for which, under setting [1], the 50% inhibitory concentration (IC50) is 0.1 to 1 µM.

As to `Cc1ccc(NC(=O)N(c2ccccc2C(C)C)[C@H]2CC[C@H](c3cccnc3)CC2)c(OC(F)F)n1` [Example 261, 3-(2-(difluoromethoxy)-6-methylpyridin-3-yl)-1-(2-isopropylphenyl)-1-((1r,4r)-4-(pyridin-3-yl)cyclohexyl)urea], the IC50 under setting [1] lay within 0.1 to 1 µM.

`CC(=O)N[C@H]1CC[C@H](N(C(=O)Nc2ccc(C)nc2OC(F)F)c2ccccc2C(C)C)CC1` [Example 267, N-((1r,4r)-4-(3-(2-(difluoromethoxy)-6-methylpyridin-3-yl)-1-(2-isopropylphenyl)ureido)cyclohexyl)acetamide]: under setting [1], the IC50 was in the range of 0.01 to 0.1 µM.

On to `COc1ccc(NC(=O)N(c2ccccc2C(C)C)C2CCCN(C(C)=O)C2)c(OC(F)F)n1` (centres unmarked) [Example 43, 1-(1-acetylpiperidin-3-yl)-3-(2-(difluoromethoxy)-6-methoxypyridin-3-yl)-1-(2-isopropylphenyl)urea], for which, under setting [1], the IC50 is 0.1 to 1 µM.

For the compound `Cc1ccc(NC(=O)N(c2ccccc2C(C)C)C2CCN(C(=O)Cn3nccn3)CC2)c(OC(F)F)n1` [Example 79, 1-(1-(2-(2H-1,2,3-triazol-2-yl)acetyl)piperidin-4-yl)-3-(2-(difluoromethoxy)-6-methylpyridin-3-yl)-1-(2-isopropylphenyl)urea], the IC50 (LPAR1 IC50) was less than 0.01 µM.

For `COc1ccc(NC(=O)N(c2ccccc2C(C)C)C2CN(C(C)=O)C2)c(OC)n1` [Example 118], the 50% inhibitory concentration (IC50) under setting [1] lay in the range of 0.1 to 1 µM.

As to `CC(C)c1ccccc1N(C(=O)Nc1ncc(Cl)cc1OC(F)F)C1CC(CC(=O)O)C1` (centres unmarked) [Example 175, 2-(3-(3-(5-chloro-3-(difluoromethoxy)pyridin-2-yl)-1-(2-isopropylphenyl)ureido)cyclobutyl)acetic acid], under setting [1], the IC50 is less than 0.01 µM.

Consider `Cc1ccc(NC(=O)N(C[C@H]2CC[C@H](C(=O)O)CC2)c2ccccc2C(C)C)c(OC(F)F)n1` [Example 171], for which, under setting [1], the IC50 fell in the range of 0.01 to 0.1 µM.

As to `CC(=O)N1CC[C@H](N(C(=O)Nc2ccc(C)nc2OC(F)F)c2ccccc2C(C)C)C1` [Example 68, (S)-1-(1-acetylpyrrolidin-3-yl)-3-(2-(difluoromethoxy)-6-methylpyridin-3-yl)-1-(2-isopropylphenyl)urea], under setting [1], the IC50 was 0.01 to 0.1 µM.

On to `CC(=O)N1CCC(N(C(=O)Nc2ncc(C(F)(F)F)cc2Br)c2ccccc2C(C)C)CC1` [Example 139], for which the 50% inhibitory concentration (IC50) (LPAR1 IC50) is more than 1 µM.
